According to patent publication US6753323B2, “Topical administration of amifostine and related compounds” (MedImmune Oncology, Inc., priority 1998, dated 2004):

What was measured:
[1] = Solubility of WR-1065 salts in various solvents; assay type: physicochemical; conditions: Water
Protocol: As mentioned above, salts of amifostine and related compounds are included within the scope of the invention. […] Several salts of WR-1065 were prepared, and their solubility in various solvents was measured.

[2] = system: bacteria, yeast and mold; test: USP 23 Antimicrobial Preservatives-Effectiveness test, overall; assay type: cell-based; conditions: each of the tested microorganisms, 28 day test
Protocol: WR-1065 was evaluated according to a protocol based on the “Antimicrobial Preservatives-Effectiveness” Test, outlined in the United States Pharmaeopeia, 23rd ed. (1995).
Prior to inoculation of the test article, a 1:10 dilution is prepared in diluent and 1.0 mL is plated. Additional serial dilutions are prepared and plated as necessary. Two separate sets are prepared as above. One set is prepared for bacteria counts, and one set is prepared for yeast/mold counts.
Enumeration of viable bacterial and fungal populations in the inoculated test article is conducted at 7, 14, 21 and 28 days post inoculation. At each time interval, a 1.0 g (or mL) specimen is removed from each inoculated specimen and plate counts are obtained by preparing serial dilutions in 9 mL tubes of diluent and plating aliquots from each dilution. Following incubation, plates are observed and the CFU's are enumerated. The number obtained is multiplied by the dilution factor to give the number of viable organisms per g (or mL) of test article at each time interval. At each time interval, the inoculated product is examined and any changes observed in the appearance of the test article during the challenge period are recorded. […]

[3] = system: hair matrix cells; conditions: topical 0.3 mg in 0.2 mL Ringer's solution on depilated mouse skin before fractionated irradiation; cited from earlier work

Row | Structure (SMILES) | Est. Solubitity HPLC Assay ([1]; as salt) | Est. Solubitity HPLC Assay ([1]; expressed as free base) | preservative efficacy according to USP 23 criteria [2] | protection of hair matrix cells from radiation-induced injury [3]
1 | Cl.Cl.NCCCNCCS [di-HCl] | 849 mg/mL | 550 mg/mL |  | 
2 | NCCCNCCS [WR-1065, S-2-(3-aminopropylamino) ethanethiol] |  |  | effective preservative | some effectiveness
